Values of other authors, collected in US20210121517A1, “STABLE PARENTERAL DOSAGE FORM OF CETRORELIX ACETATE” (Sun Pharmaceutical Industries Limited, priority 2019, published 2021).
Where two headings read alike, the source gives them in different places.

Conditions: 2.5 mg/ml

time until aggregation was seen (gluconic acid 0.71%, pH 3.1): 12 days
time until aggregation was seen (gluconic acid less than 0.07%, pH 3.7): ≤ 2 days
Substance: acetyl-D-3-(2′-naphtyl)-alanine-D-4-chlorophenylalanine-D-3-(3′-pyridyl)-alanine-L-serine-L-tyrosine-D-citruline-L-leucine-L-arginine-L-proline-D-alanine-amide [Cetrorelix acetate]
